The test system of assay [1] is rat Tas1r3 with heptahelical domain of human TAS1R3, coexpressed with rat Tas1r2. Put plainly: Calcium response, chimeric receptor. In kind it is cell-based. The following applies: 1 mM NHDC. The text has this: In order to elucidate the putative binding site for NHDC, we cotransfected mixtures of plasmid DNAs for the rat and human TAS1R2 and TAS1R3 receptor subunits in HEK293T cells stably expressing the chimeric G-protein G16Gust44 and measured cellular calcium responses by fluorometry following bath application of various sweet tasting compounds. […].
Figure 1 Chemical structure and calcium responses elicited by neohesperidin dihydrochalcone. (A) Structure of neohesperidin dihydrochalcone. Numbers denote carbon atom positions. (B) Representative calcium traces elicited upon stimulation with different concentrations of neohesperidin dihydrochalcone (NHDC) in HEK293T-G16Gust44 cells cotransfected with DNA for hTAS1R2/hTAS1R3. […]
The cDNAs for TAS1Rs tagged at the C-terminus with the herpes simplex virus glycoprotein D (HSV) were transiently transfected into HEK293T cells stably expressing the chimeric G-protein subunit G16Gust44 [44] using Lipofectamine 2000 (Invitrogen, Carlsbad, CA) according to the manufacturer's protocol. […] We monitored calcium mobilization following receptor stimulation with sweet tastants by an automated fluorometric imaging plate reader (FLIPR, Molecular Devices, Sunnyvale, CA). […] The obtained calcium signals were corrected for the response of mock transfected cells and normalized to the fluorescence of cells prior to the application of the stimulus using ΔF/F = (F-F0)/F0. […]

Assay [2] addresses T1, hTAS1R2 + hTAS1R3 L782A^6.55 (Homo sapiens, UniProt Q7RTX0+Q8TE23, L782A).
T1 construct: expressed in transfected cells; host or cells: HEK293T cells stably expressing G16Gust44
T1 sequence (Q8TE23 20-839): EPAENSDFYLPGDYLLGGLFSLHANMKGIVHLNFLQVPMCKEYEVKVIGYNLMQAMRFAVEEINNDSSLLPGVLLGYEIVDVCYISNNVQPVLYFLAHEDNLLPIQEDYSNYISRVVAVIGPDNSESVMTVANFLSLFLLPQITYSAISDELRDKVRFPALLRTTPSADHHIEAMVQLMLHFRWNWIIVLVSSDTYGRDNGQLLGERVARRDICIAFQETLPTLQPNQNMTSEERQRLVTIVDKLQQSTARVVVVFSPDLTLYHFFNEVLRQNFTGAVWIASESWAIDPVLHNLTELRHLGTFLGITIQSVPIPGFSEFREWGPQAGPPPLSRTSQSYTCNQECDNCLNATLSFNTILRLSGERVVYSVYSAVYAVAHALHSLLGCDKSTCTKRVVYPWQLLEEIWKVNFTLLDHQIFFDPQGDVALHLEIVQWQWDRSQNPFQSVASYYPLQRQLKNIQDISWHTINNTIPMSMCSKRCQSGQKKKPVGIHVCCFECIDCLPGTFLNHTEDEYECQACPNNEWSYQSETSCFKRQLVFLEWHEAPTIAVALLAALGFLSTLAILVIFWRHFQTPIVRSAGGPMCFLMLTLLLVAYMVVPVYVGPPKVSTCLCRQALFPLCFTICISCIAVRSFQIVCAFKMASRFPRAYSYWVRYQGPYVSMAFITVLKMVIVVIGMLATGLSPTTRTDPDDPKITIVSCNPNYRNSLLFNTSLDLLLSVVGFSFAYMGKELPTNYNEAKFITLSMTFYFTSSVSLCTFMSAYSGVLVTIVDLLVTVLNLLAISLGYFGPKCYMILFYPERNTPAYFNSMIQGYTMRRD
T1 sequence (Q7RTX0 21-852 L782A): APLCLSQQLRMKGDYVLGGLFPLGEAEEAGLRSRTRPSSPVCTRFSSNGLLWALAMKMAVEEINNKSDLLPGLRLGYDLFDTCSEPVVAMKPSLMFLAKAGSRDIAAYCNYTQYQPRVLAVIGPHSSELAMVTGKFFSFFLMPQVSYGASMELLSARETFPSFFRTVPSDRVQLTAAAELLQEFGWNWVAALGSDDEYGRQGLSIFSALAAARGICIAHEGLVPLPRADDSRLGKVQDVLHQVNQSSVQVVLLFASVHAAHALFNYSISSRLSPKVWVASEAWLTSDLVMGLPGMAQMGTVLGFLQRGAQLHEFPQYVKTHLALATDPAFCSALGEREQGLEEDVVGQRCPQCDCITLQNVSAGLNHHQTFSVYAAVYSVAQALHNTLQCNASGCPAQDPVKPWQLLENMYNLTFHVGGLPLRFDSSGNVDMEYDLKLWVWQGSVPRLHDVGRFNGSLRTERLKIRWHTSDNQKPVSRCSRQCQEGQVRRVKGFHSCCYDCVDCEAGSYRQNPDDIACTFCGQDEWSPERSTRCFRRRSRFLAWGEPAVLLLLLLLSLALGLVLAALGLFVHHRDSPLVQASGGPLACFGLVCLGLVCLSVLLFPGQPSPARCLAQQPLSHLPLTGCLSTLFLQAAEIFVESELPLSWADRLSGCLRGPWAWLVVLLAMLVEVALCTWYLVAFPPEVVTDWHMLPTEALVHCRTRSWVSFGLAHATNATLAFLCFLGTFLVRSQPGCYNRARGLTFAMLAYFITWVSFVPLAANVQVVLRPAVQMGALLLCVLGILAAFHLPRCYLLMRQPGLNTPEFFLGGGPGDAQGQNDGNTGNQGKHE
Set-up: method as in PMID 15668251. The following applies: mutation L782A^6.55; cited from earlier work.

As to `COc1ccc(CCC(=O)c2c(O)cc(O[C@@H]3O[C@H](CO)[C@@H](O)[C@H](O)[C@H]3O[C@@H]3O[C@@H](C)[C@H](O)[C@@H](O)[C@H]3O)cc2O)cc1O` [NHDC, neohesperidin dihydrochalcone], in assay [1], the calcium response entry was “sensitive for NHDC”.
Take `O=S(=O)(O)NC1CCCCC1` [cyclamate]: the receptor activation entry in assay [2] was “abolished activation”.

These data come from PMC2099433, “The binding site for neohesperidin dihydrochalcone at the human sweet taste receptor” (BMC Structural Biology, 2007).
